What was measured:
B. subtilis 168 [1] = assay: fitness (endpoint OD595 vs no drug) (fraction); higher = more growth
Outline: (§1)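 Fitness compares growth at the stationary-phase transition with the robust mean of no-drug control wells, as a ratio of optical densities. The ratio is capped at 1. Wells of 384-well plates held 30 µl, or 55 µl for S. pneumoniae, inoculated at OD595 0.01. Readings at OD595 every 30 min for 14 h at 37 °C were corrected against the first reading.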

S. pneumoniae D39V [2] = assay: as above
Outline: as §1

S. aureus Newman [3] = assay: as above
Outline: as §1

S. aureus DSM 20231 = assay: Bliss interaction score (quartile over a dose matrix) (fitness difference); higher = more antagonism (negative = synergy)
Outline: (§2)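 The Bliss score takes observed fitness and subtracts the expected fitness, calculated as a product of single-drug fitness values. Those single-drug values were inferred from the combination data. Fitness is OD595 at entry into stationary phase divided by the plate's robust no-drug mean, capped at 1, and the score is summarised by quartiles across technical, biological and donor/recipient replicates.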

B. subtilis 168 [4] = assay: as above
Outline: as §2

S. pneumoniae D39V [5] = assay: as above
Outline: as §2

S. aureus Newman [6] = assay: as above
Outline: as §2
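For Bliss interaction score (quartile over a dose matrix) in this document: first quartile when negative (synergy) and third quartile when positive (antagonism).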
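For fitness (endpoint OD595 vs no drug) in this document: OD595 on entry to stationary phase over no-drug wells; at most 1.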

CC1=C(C(=O)O)N2C(=O)[C@@H](NC(=O)[C@H](N)c3ccccc3)[C@H]2SC1 [Cephalexin] + CN1C2=CC=CC=C2N=C3C1=CC=CC3=O [Pyocyanin]
fitness
Settings	first compound 0.125 µg/mL	first compound 0.25 µg/mL	first compound 0.5 µg/mL	first compound 1 µg/mL
B. subtilis 168 [1], partner 1.25 µg/mL	0.923	0.916	0.881	–
B. subtilis 168 [1], partner 2.5 µg/mL	0.874	0.836	0.823	–
B. subtilis 168 [1], partner 5 µg/mL	0.719	0.686	0.679	–
S. aureus Newman [3], partner 1.25 µg/mL	–	0.928	0.92	0.823
S. aureus Newman [3], partner 2.5 µg/mL	–	0.905	0.892	–
S. aureus Newman [3], partner 5 µg/mL	–	0.604	0.559	–

fitness, S. pneumoniae D39V [2], one replicate
Settings	first compound 0.125 µg/mL	first compound 0.25 µg/mL	first compound 0.5 µg/mL	first compound 1 µg/mL	first compound 2 µg/mL	first compound 4 µg/mL
partner 0.325 µg/mL	0.976	≥ 1	≥ 1	0.817	0.328	0.0365
partner 0.65 µg/mL	0.933	≥ 1	≥ 1	0.891	0.65	0.158
partner 1.3 µg/mL	0.762	0.805	0.822	–	–	–

Settings	Bliss interaction score
B. subtilis 168 [4]	-0.0454
S. aureus DSM 20231	0.0604
S. aureus Newman [6]	0.0862
S. pneumoniae D39V [5]	0.0919

CNC(C)C1CCC(N)C(OC2C(N)CC(N)C(OC3OCC(C)(O)C(NC)C3O)C2O)O1 (stereo not drawn) [Gentamicin] + CN[C@H](CC(C)C)C(=O)N[C@H]1C(=O)N[C@@H](CC(N)=O)C(=O)N[C@H]2C(=O)N[C@H]3C(=O)N[C@H](C(=O)N[C@H](C(=O)O)c4cc(O)cc(O)c4-c4cc3ccc4O)[C@H](O)c3ccc(c(Cl)c3)Oc3cc2cc(c3O[C@@H]2O[C@H](CO)[C@@H](O)[C@H](O)[C@H]2O[C@H]2C[C@](C)(N)[C@H](O)[C@H](C)O2)Oc2ccc(cc2Cl)[C@H]1O [Vancomycin]
fitness, main component drawn
Settings	first compound 0.5 µg/mL	first compound 1 µg/mL	first compound 2 µg/mL	first compound 4 µg/mL	first compound 8 µg/mL
S. aureus Newman [3], partner 0.1875 µg/mL	0.991	0.988	–	–	–
S. aureus Newman [3], partner 0.375 µg/mL	0.981	0.996	≥ 1	–	–
S. aureus Newman [3], partner 0.75 µg/mL	0.999	≥ 1	≥ 1	–	–
S. pneumoniae D39V [2], partner 0.03125 µg/mL	–	–	0.974	≥ 1	0.98
S. pneumoniae D39V [2], partner 0.0625 µg/mL	–	–	0.949	0.977	0.952
S. pneumoniae D39V [2], partner 0.125 µg/mL	–	–	0.891	0.922	0.925
S. pneumoniae D39V [2], partner 0.25 µg/mL	–	–	0.0786	0.0692	0.0847
S. pneumoniae D39V [2], partner 0.5 µg/mL	–	–	0.0666	0.052	0.0832

fitness, S. aureus Newman [3], one replicate, main component drawn
Settings	first compound 0.375 µg/mL	first compound 0.75 µg/mL	first compound 1.5 µg/mL
partner 0.1875 µg/mL	≥ 1	≥ 1	0.261
partner 0.375 µg/mL	≥ 1	≥ 1	0.0474
partner 0.75 µg/mL	≥ 1	≥ 1	0.0659

main component drawn
Settings	Bliss interaction score
B. subtilis 168 [4]	0.0451
S. aureus DSM 20231	0.0984
S. aureus Newman [6]	0.0347
S. pneumoniae D39V [5]	-0.0655

CNC(C)C1CCC(N)C(OC2C(N)CC(N)C(OC3OCC(C)(O)C(NC)C3O)C2O)O1 (stereo not drawn) [Gentamicin] + Cn1nnc(-c2ccc(-c3ccc(N4C[C@H](CO)OC4=O)cc3F)cn2)n1 [Tedizolid]
fitness, main component drawn
Settings	partner 0.03125 µg/mL	partner 0.0625 µg/mL	partner 0.125 µg/mL	partner 0.25 µg/mL	partner 0.5 µg/mL
S. aureus Newman [3], first compound 0.375 µg/mL	–	0.965	0.862	0.176	–
S. aureus Newman [3], first compound 0.5 µg/mL	–	0.938	0.934	0.605	–
S. aureus Newman [3], first compound 0.75 µg/mL	–	0.969	0.771	0.131	–
S. aureus Newman [3], first compound 1 µg/mL	–	0.949	0.907	–	–
S. aureus Newman [3], first compound 1.5 µg/mL	–	–	–	0.15	–
S. aureus Newman [3], first compound 2 µg/mL	–	0.979	0.905	0.702	–
S. pneumoniae D39V [2], first compound 2 µg/mL	0.933	0.964	0.687	0.259	0.104
S. pneumoniae D39V [2], first compound 4 µg/mL	0.942	0.964	–	0.211	0.105
S. pneumoniae D39V [2], first compound 8 µg/mL	0.933	0.954	–	0.242	0.0993

main component drawn
Settings	Bliss interaction score
B. subtilis 168 [4]	0.228
S. aureus DSM 20231	0.0633
S. aureus Newman [6]	0.0667
S. pneumoniae D39V [5]	-0.112
